# Results published in US12421208B2, “Chemical compounds” (ASTRAZENECA AB, priority 2020, dated 2025).
# Legend:
# MDR1 and BCRP = test: In vitro human transporter efflux (MDCK-MDR1-BCRP); assay type: in vitro ADME; details: human, pH 7.4, Papp(B to A)/Papp(A to B), 1 or 0.1 μM, 90-min incubation
# Description: In Vitro Human Transporter Efflux
# MDCKII cells expressing MDR1 and BCRP were seeded onto polyethylene membranes in 96-well Transwell insert systems at a density to form a confluent cell monolayer. […] The final percent volume of the organic solvent was less than 1%. Permeation of the test compounds from A to B direction and from B to A direction was determined over a 90-min incubation at 37° C. and 5% CO2 with a relative humidity of 95%. At the end of the incubation, samples from the apical and basolateral side were taken and then precipitated with cold acetonitrile containing internal standard. After centrifugation at 4000 rpm, the supernatant was diluted with 0.1% formic acid aqueous solution and quantified by LC-MS/MS. The integrity of the cell monolayers was confirmed by using the marker Lucifer yellow.
# (1) The efflux ratio was calculated using the following equation Efflux ratio=Papp(B to A)/Papp(A to B)
# (2) where dCr/dt is the cumulative concentration of the compound in the receiver chamber as a function of time (in μM/s); Vr is the solution volume in the receiver chamber (0.1 ml on the apical side and 0.3 ml on the basolateral side); A is the surface area for the transport, that is, 0.11 cm2 for the area of the monolayer; and CO is the initial concentration in the donor chamber (in μM).
# PARP6 = target: T1, PARP6 (Homo sapiens, UniProt Q2NL67); test: PARP fluorescence anisotropy binding assay, PARP6; details: recombinant full length GST tagged PARP6
# T1 construct: Recombinant full length GST tagged PARP6 protein; GST
# T1 sequence (Q2NL67 whole entry): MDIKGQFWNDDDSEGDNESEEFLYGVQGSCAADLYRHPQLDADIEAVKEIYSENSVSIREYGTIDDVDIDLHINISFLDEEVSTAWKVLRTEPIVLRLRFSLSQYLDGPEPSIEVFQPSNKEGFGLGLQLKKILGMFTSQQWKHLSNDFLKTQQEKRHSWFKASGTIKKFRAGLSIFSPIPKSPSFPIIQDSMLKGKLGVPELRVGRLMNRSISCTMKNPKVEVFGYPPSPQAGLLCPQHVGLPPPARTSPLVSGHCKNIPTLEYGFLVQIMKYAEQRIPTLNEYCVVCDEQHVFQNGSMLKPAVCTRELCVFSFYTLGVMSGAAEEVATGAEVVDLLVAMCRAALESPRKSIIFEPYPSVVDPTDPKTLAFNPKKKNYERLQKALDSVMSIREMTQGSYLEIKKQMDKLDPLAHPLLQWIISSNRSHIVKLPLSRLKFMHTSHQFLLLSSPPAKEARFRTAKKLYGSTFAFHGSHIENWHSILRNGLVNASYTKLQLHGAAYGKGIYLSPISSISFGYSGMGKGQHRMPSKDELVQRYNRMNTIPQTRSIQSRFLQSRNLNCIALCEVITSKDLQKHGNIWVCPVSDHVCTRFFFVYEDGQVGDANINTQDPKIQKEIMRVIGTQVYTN
# Description: (§1) PARP Fluorescence Anisotropy Binding Assays
# (§2) Recombinant full length GST tagged PARP6 protein was diluted to 160 nM with 50 mM Tris pH 8, 0.001% Triton X100, 10 mM MgCl2, 150 mM NaCl and incubated for four hours with an equivalent volume of 6 nM fluorescent probe diluted with 50 mM Tris pH 8, 0.001% Triton X100, 10 mM MgCl2, 150 mM NaCl. The final DMSO concentration of the probe was kept below 1% (v/v).
# Fluorescence anisotropy of the probe when bound to the proteins was measured using a BMG Pherastar FSX© in the presence of test compounds or solvent control and the effect on anisotropy determined. % inhibition values for different test compound concentrations were calculated and fitted to a four parameter logistic plot in order to determine the IC50 value. Where necessary, the compound Ki can be determined from the IC50 value using a Munson Rodbard equation defined in Anal Biochem. 1980 Sep. 1; 107(1):220-39 and is based on the known KD of the probe binding to the relevant PARP protein
# DLD1 cells = test: PARP proliferation assay (7 day compound dosing), WT DLD1; assay type: cell-based; details: Homo sapiens, 168 h; WT DLD-1 cells, 7 day dosing; read-out: WT DLD-1 prolif. 7 d IC50
# Description: (§3) PARP Proliferation Assay (7 Day Compound Dosing)
# (§4) DLD1 and BRCA2 (−/−) DLD1 cells were harvested to a density of 5000 cells/ml and 2.5E4 cells/ml respectively in complete media, 40 μL/well seeded into 384-well plates (Greiner, Kremsmunster, Austria; 781090) using a Multidrop Combi then incubated at 37° C., 5% CO2 overnight. Next day (Day 1) using a Multidrop Combi add sytoxgreen (5 ul, 2 uM) and saponin (10 ul, 0.25% stock) to a day 0 plate, seal the plate using a black adhesive lid and incubate for >3 h at rt. Cells were imaged using Cell Insight (Thermo Fisher) fitted with a 4× objective. Test compounds are added using an Echo 555 and placed in incubator maintained at 37° C., 5% CO2 and incubated for 7 days. On Day 8 add sytox green (5 ul, 2 uM) and then saponin (10 ul, 0.25% stock) to plates, seal the plate using a black adhesive lid and incubate for >3 h at rt. Read all cells on the Cell Insight with 4× Objective. The rate of proliferation is determined in Genedata by assessing the total cell number output from the Cell Insight for Day 0 and Day 8 plates.
# PARP3 = target: T2, PARP3 (Homo sapiens, UniProt Q9Y6F1); test: PARP fluorescence anisotropy binding assay, PARP3; details: recombinant full length PARP3
# T2 construct: Recombinant full length PARP3 protein
# T2 sequence (Q9Y6F1 1-533): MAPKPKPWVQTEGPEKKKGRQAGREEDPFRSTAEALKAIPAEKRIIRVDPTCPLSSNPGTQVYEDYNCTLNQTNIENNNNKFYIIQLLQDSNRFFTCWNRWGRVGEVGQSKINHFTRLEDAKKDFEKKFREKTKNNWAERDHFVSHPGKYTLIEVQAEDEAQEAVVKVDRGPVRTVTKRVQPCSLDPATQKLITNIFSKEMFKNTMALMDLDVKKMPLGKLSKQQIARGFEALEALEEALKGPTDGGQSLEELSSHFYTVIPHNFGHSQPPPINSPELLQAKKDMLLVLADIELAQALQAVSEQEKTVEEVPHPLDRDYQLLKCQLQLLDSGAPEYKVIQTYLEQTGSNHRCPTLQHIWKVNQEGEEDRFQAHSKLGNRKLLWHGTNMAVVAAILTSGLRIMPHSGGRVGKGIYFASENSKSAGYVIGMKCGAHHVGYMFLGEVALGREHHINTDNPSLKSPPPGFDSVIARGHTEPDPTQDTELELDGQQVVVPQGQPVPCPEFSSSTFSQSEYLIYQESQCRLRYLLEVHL
# Source text: as §1
# PARP5a = PARP5a (Homo sapiens, UniProt O95271); test: PARP fluorescence anisotropy binding assay, PARP5a binding domain; details: recombinant PARP5a binding domain
# Sequence of PARP5a (O95271 1112-1317): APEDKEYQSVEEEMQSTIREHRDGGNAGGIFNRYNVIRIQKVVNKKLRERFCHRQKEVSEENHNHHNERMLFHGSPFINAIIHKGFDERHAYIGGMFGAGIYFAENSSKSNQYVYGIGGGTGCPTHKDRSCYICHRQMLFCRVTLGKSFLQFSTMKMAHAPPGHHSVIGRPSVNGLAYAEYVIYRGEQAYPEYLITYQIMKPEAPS
# Source text: as §1
# BRCA2 (−/−) DLD1 cells = test: PARP proliferation assay (7 day compound dosing), BRCA2 (−/−) DLD1; assay type: cell-based; details: Homo sapiens, DLD-1, 168 h, BRCA2 −/− DLD-1 cells, 7 day dosing; read-out: BRCA2 −/− DLD-1 prolif. 7 d IC50
# Description: as §3, §4
# hERG = hERG (Homo sapiens, UniProt Q12809); test: hERG inhibition
# Sequence of hERG (Q12809 whole entry): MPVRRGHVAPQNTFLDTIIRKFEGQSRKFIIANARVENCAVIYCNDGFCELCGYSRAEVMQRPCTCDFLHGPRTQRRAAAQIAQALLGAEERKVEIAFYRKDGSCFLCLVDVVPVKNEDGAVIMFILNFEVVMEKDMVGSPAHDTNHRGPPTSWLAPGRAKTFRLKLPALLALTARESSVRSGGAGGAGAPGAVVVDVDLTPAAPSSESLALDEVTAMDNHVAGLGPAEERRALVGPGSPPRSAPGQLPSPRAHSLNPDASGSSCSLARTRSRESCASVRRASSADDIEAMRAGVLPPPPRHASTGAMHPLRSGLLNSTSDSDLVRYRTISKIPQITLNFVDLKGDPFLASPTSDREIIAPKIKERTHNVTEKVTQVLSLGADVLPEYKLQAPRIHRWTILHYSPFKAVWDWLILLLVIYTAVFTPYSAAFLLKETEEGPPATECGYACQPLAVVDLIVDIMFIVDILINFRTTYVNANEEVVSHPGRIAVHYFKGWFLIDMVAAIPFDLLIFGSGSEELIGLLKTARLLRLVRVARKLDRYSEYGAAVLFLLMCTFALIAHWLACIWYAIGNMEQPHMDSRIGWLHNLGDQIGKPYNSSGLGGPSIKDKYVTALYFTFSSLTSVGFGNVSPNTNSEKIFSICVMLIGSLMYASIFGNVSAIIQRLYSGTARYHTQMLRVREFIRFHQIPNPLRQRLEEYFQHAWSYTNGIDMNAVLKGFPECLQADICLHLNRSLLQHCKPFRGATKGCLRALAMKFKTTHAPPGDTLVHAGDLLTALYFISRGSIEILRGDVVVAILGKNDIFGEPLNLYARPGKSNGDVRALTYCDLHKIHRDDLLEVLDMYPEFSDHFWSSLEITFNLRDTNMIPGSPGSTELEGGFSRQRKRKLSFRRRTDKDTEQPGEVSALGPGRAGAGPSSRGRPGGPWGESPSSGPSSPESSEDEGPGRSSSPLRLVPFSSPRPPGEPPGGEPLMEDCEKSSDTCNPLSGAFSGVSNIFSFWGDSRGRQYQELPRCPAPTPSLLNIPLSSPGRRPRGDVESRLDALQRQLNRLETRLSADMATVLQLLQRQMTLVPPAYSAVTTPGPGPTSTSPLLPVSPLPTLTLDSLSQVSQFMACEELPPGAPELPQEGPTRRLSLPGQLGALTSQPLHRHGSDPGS
# Source text: It is well known that blockade of the cardiac ion channel coded by human ether-n-gogo-related gene (hERG) is a risk factor in drug discovery and development. Blockage of hERG can cause safety problems such as cardiac arrhythmia. Advantageously, the compounds of Formula I have low hERG activity.
# PARP2 = target: T3, PARP2 (Homo sapiens, UniProt Q9UGN5); test: PARP fluorescence anisotropy binding assay, PARP2; details: recombinant full length PARP2
# T3 construct: Recombinant full length PARP2 protein
# T3 sequence (Q9UGN5 whole entry): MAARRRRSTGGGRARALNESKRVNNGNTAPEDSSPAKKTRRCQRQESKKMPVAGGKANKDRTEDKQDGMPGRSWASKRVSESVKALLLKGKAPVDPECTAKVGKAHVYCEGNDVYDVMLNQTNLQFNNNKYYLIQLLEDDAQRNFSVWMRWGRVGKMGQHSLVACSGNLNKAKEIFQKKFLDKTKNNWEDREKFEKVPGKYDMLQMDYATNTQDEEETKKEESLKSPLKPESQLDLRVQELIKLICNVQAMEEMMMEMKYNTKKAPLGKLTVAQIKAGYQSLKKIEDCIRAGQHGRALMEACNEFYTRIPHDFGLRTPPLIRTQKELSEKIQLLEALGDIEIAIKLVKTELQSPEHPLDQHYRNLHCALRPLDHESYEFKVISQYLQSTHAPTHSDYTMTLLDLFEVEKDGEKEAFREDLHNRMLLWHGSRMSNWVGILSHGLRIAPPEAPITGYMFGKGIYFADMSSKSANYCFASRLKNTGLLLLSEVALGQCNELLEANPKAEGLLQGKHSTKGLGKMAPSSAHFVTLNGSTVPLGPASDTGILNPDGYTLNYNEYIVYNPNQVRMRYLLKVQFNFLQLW
# Description: as §1
# as §2, with “PARP2” for “GST tagged PARP6”, “6” for “160”, “2” for “6”
# Fluorescence anisotropy of the probe when bound to the proteins was measured using a BMG Pherastar FSX© in the presence of test compounds or solvent control and the effect on anisotropy determined. % inhibition values for different test compound concentrations were calculated and fitted to a four parameter logistic plot in order to determine the IC50 value.
SMILES,efflux ratio at 90 min (MDR1 and BCRP),IC50 (PARP6) [µM],IC50 (DLD1 cells) [µM],IC50 (PARP3) [µM],IC50 (PARP5a) [µM],IC50 (BRCA2 (−/−) DLD1 cells) [µM],IC50 (PARP2) [µM],IC50 (hERG) [µM]
"CNC(=O)c1ccc(N2CCN(Cc3ccc4nc(C(C)F)c(=O)[nH]c4c3F)CC2)c(C)n1 (single isomer, unassigned) [Example 14, 5-[4-[[5-fluoro-2-[(1S OR 1R)-1-fluoroethyl]-3-oxo-4H-quinoxalin-6-yl]methyl]piperazin-1-yl]-N,6-dimethyl-pyridine-2-carboxamide]",3.7,,,,,,,
"CCc1nc2ccc(CN3CCN(c4ccc(C(=O)NC)nc4)CC3)c(Cl)c2[nH]c1=O [Example 10, 5-[4-[(5-chloro-2-ethyl-3-oxo-4H-quinoxalin-6-yl)methyl]piperazin-1-yl]-N-methyl-pyridine-2-carboxamide]",,> 100,> 30,> 100,> 100,> 30,> 100,> 40
"CCc1nc2ccc(CN3CCN(c4ccc(C(=O)NC)nc4C)CC3)c(Cl)c2[nH]c1=O [Example 11, 5-[4-[(5-chloro-2-ethyl-3-oxo-4H-quinoxalin-6-yl)methyl]piperazin-1-yl]-N,6-dimethyl-pyridine-2-carboxamide]",,> 100,> 30,> 100,> 100,0.009,> 100,> 40
"CNC(=O)c1ccc(N2CCN(Cc3ccc4nc(C)c(=O)[nH]c4c3Cl)CC2)cn1 [Example 16, 5-[4-[(5-chloro-2-methyl-3-oxo-4H-quinoxalin-6-yl)methyl]piperazin-1-yl]-N-methyl-pyridine-2-carboxamide]",,> 100,> 30,> 100,> 29,3.62,> 100,> 40
"CNC(=O)c1ccc(N2CCN(Cc3ccc4nc(C)c(=O)[nH]c4c3F)CC2)c(F)n1 [Example 20, 6-fluoro-5-[4-[(5-fluoro-2-methyl-3-oxo-4H-quinoxalin-6-yl)methyl]piperazin-1-yl]-N-methyl-pyridine-2-carboxamide]",,> 100,,> 100,> 100,,,> 40
"CCc1nc2ccc(CN3CCN(c4ccc(C(=O)NC)nc4C)CC3)c(F)c2[nH]c1=O [Example 23, 5-[4-[(2-ethyl-5-fluoro-3-oxo-4H-quinoxalin-6-yl)methyl]piperazin-1-yl]-N,6-dimethyl-pyridine-2-carboxamide]",,,> 30,,,0.003,,> 40
"CCc1nc2ccc(CN3CCN(c4ccc(C(=O)NC)nc4C(F)F)CC3)c(F)c2[nH]c1=O [Example 24, 6-(difluoromethyl)-5-[4-[(2-ethyl-5-fluoro-3-oxo-4H-quinoxalin-6-yl)methyl]piperazin-1-yl]-N-methyl-pyridine-2-carboxamide]",,,> 30,,,0.003,,> 36
"CNC(=O)c1ccc(N2CCN(Cc3ccc4nc(C)c(=O)[nH]c4c3F)CC2)c(Cl)n1 [Example 30, 6-chloro-5-[4-[(5-fluoro-2-methyl-3-oxo-4H-quinoxalin-6-yl)methyl]piperazin-1-yl]-N-methyl-pyridine-2-carboxamide]",,,> 30,,,0.003,,> 40

# More lines, main results first:
efflux ratio at 90 min (MDR1 and BCRP),IC50 (PARP6) [µM],IC50 (DLD1 cells) [µM],IC50 (PARP3) [µM],IC50 (PARP5a) [µM],IC50 (BRCA2 (−/−) DLD1 cells) [µM],IC50 (PARP2) [µM],SMILES,IC50 (hERG) [µM]
,> 100,> 7.9,> 100,> 100,0.012,> 66,"CCc1nc2ccc(CN3CCN(c4ccc(C(=O)NC)nc4Cl)CC3)c(Cl)c2[nH]c1=O [Example 8, 6-chloro-5-[4-[(5-chloro-2-ethyl-3-oxo-4H-quinoxalin-6-yl)methyl]piperazin-1-yl]-N-methyl-pyridine-2-carboxamide]",> 40
,> 100,> 10,> 100,> 100,0.01,> 100,"CCc1nc2ccc(CN3CCN(c4ccc(C(=O)NC)nc4F)CC3)c(Cl)c2[nH]c1=O [Example 9, 5-[4-[(5-chloro-2-ethyl-3-oxo-4H-quinoxalin-6-yl)methyl]piperazin-1-yl]-6-fluoro-N-methyl-pyridine-2-carboxamide]",> 40
,> 100,> 10,> 100,> 100,1.05,> 100,"CNC(=O)c1ccc(N2CCN(Cc3ccc4nc(C)c(=O)[nH]c4c3Cl)CC2)c(F)n1 [Example 17, 5-[4-[(5-chloro-2-methyl-3-oxo-4H-quinoxalin-6-yl)methyl]piperazin-1-yl]-6-fluoro-N-methyl-pyridine-2-carboxamide]",> 40
,> 100,21,> 100,> 100,4.33,> 100,"CNC(=O)c1ccc(N2CCN(Cc3ccc4nc(C)c(=O)[nH]c4c3Cl)CC2)c(C)n1 [Example 18, 5-[4-[(5-chloro-2-methyl-3-oxo-4H-quinoxalin-6-yl)methyl]piperazin-1-yl]-N,6-dimethyl-pyridine-2-carboxamide]",
,,6.3,,,0.006,,"CCc1nc2ccc(CN3CCN(c4ccc(C(=O)NC)nc4F)CC3)c(F)c2[nH]c1=O [Example 27, 5-[4-[(2-ethyl-5-fluoro-3-oxo-4H-quinoxalin-6-yl)methyl]piperazin-1-yl]-6-fluoro-N-methyl-pyridine-2-carboxamide]",> 40
,,> 10,,,0.005,,"CCc1nc2ccc(CN3CCN(c4ccc(C(=O)NC)nc4)CC3)c(F)c2[nH]c1=O [Example 29, 5-[4-[(2-ethyl-5-fluoro-3-oxo-4H-quinoxalin-6-yl)methyl]piperazin-1-yl]-N-methyl-pyridine-2-carboxamide]",> 40
,,23,,,1.08,,"CNC(=O)c1ccc(N2CCN(Cc3ccc4nc(C)c(=O)[nH]c4c3F)CC2)cn1 [Example 32, 5-[4-[(5-fluoro-2-methyl-3-oxo-4H-quinoxalin-6-yl)methyl]piperazin-1-yl]-N-methyl-pyridine-2-carboxamide]",> 40
,,27,,,0.018,,"CNC(=O)c1ccc(N2CCN(Cc3ccc4nc(C(F)(F)F)c(=O)[nH]c4c3F)CC2)c(F)n1 [Example 48, 6-fluoro-5-[4-[[5-fluoro-3-oxo-2-(trifluoromethyl)-4H-quinoxalin-6-yl]methyl]piperazin-1-yl]-N-methyl-pyridine-2-carboxamide]",> 40
